Assay results from paper PMC4942819 (Scientific Reports, 2016).
In brackets after ≈: the same amount, converted by molar mass.

test system: H37Rv; experiment: microbe, parasite or virus in culture; assay type: cell-based, Mycobacterium tuberculosis; conditions: Mycobacterium tuberculosis, H37RV, read-out: MIC, strain H37Rv

SMILES	MIC [µg/mL]
[H]/N=C(/N)N[C@H]1[C@H](O)[C@@H](O)[C@H](O[C@@H]2O[C@@H](C)[C@](O)(C=O)[C@H]2O[C@@H]2O[C@@H](CO)[C@H](O)[C@@H](O)[C@@H]2NC)[C@@H](N/C(N)=N\[H])[C@@H]1O [SM, streptomycin]	1 (≈ 1.72 µM)
O=[N+]([O-])c1cc(C(F)(F)F)cc2c(=S)nc(N3CCC4(CC3)OCCO4)sc12 [SKLB-TB1001, 8-nitro-2-(1,4-dioxa-8-azaspiro[4.5]decan-8-yl)-6-(trifluoromethyl)-4H-benzo[e][1,3]thiazine-4-thione]	< 0.0156
COc1c(N2C[C@@H]3CCCN[C@@H]3C2)c(F)cc2c(=O)c(C(=O)O)cn(C3CC3)c12 [MOX, moxifloxacin]	0.06 (≈ 0.149 µM)
CO[C@H]1/C=C/O[C@@]2(C)Oc3c(C)c(O)c4c(O)c(c(/C=N/N5CCN(C)CC5)c(O)c4c3C2=O)NC(=O)/C(C)=C\C=C\[C@H](C)[C@H](O)[C@@H](C)[C@@H](O)[C@@H](C)[C@H](OC(C)=O)[C@@H]1C [RMP, rifampicin]	< 0.03
NCC[C@H](O)C(=O)N[C@@H]1C[C@H](N)[C@@H](O[C@H]2O[C@H](CN)[C@@H](O)[C@H](O)[C@H]2O)[C@H](O)[C@H]1O[C@H]1O[C@H](CO)[C@@H](O)[C@H](N)[C@H]1O [AMK, amikacin]	0.5 (≈ 0.854 µM)
CC1COc2c(N3CCN(C)CC3)c(F)cc3c(=O)c(C(=O)O)cn1c23 (stereo not shown) [OFLX, ofloxacin]	0.5 (≈ 1.38 µM)
NNC(=O)c1ccncc1 [INH, isoniazid]	0.03 (≈ 0.219 µM)
CC[C@@H](CO)NCCN[C@@H](CC)CO [EMB, ethambutol]	1 (≈ 4.89 µM)

same assay, conditions: Table 2 prints no unit; test range in method b43 in μg/mL

SMILES	MIC, strain H37Rv [µg/mL]
C[C@H]1COc2c(N3CCN(C)CC3)c(F)cc3c(=O)c(C(=O)O)cn1c23 [LVFX, levo-ofloxacin]	0.25 (≈ 0.692 µM)
NC[C@H]1O[C@H](O[C@H]2[C@H](O)[C@@H](O[C@H]3O[C@H](CO)[C@@H](O)[C@H](N)[C@H]3O)[C@H](N)C[C@@H]2N)[C@H](O)[C@@H](O)[C@@H]1O [KM, kanamycin]	1 (≈ 2.06 µM)
